# According to patent publication US11261189B2, “Substituted 2,4 diamino-quinoline as new medicament for fibrosis, autophagy and cathepsins B (CTSB), L (CTSL) and D (CTSD) related diseases” (Genoscience Pharma, priority 2018, dated 2022):
# Counter-ions that a name gives are not always drawn.
# System: cathepsins B and L (CTSB/L)
# Experiment: Overall cathepsins B and L (CTSB/L) peptidase activity in lysates of treated HepG2 cells (Z-FR-AMC substrate)
# Format: cell-based
# Details: for CTSB/L activity versus NT: 6 hours of treatment
# Method: Lysosomal functions was investigated in a hepatocellular carcinoma (HCC) cell line HepG2 after 6 hours and 24 hours of treatment with compound 2-3 (the hydrochloride salt form of compound 2-2) using functional assays of some lysosomal enzymes activity: two cysteine proteinases: cathepsin B (CTSB) and cathepsin L (CTSL), and one aspartic proteinase: cathepsin D (CTSD). Two sets of three concentrations of compound 2-3 (1 μM, 2 μM, and 4 μM for 6 hours, and 0.5 μM, 1 μM and 2 μM for 24 hours) were tested at least in triplicate and four independent experiments were performed. Salinomycin (7.5 μM for 6 hours and 24 hours) was used as a positive control.
# The HepG2 cell line was maintained in DMEM (Dulbecco's Modified Eagle Media) high glucose (Cat #L0103-500, Dutscher) containing 1% penicillin-streptomycin (Cat #P06-07100, Dutscher) and 10% FBS (Fetal Bovine Serum) (Cat #11543407, Life Technologies). Cells were cultured at 37° C. with 5% CO2.
# The day before the experiment, 6-well plates (Cat #353046, Dutscher) with 250,000 cells in 2.7 mL of medium per well were prepared.
# Compound 2-3 was dissolved with filtrated H2O mQ to make a 10 mM stock solution and serial working solutions (10× solutions) were prepared with the diluent (=culture medium with 0.4% H2O mQ) at 5 μM, 10 μM, 20 μM and 40 μM: the “dilution 1” is made from the 10 mM stock solution in the culture medium and the following serial dilutions were made in the diluent to maintain a constant percentage of H2O.
# Salinomycin [CAS 53003-10-4] was used as positive control and was dissolved with methanol to make a 10 mM stock solution and a 10× solution at 75 μM was prepared with the culture medium.
# 300 μL of compound 2-3 10× solutions (solutions at 10 μM, 20 μM and 40 μM for 6 hours of treatment and solutions at 5 μM, 10 μM and 20 μM for 24 hours of treatment) or 300 μL of diluent (=non-treated (NT) condition) or 300 μL of Salinomycin 10× solution were dispensed in the appropriate wells (4 wells/condition). After cells treatment, 6-well plates were returned to incubator for 6 hours or 24 hours.
# After 6 hours or 24 hours of cells treatment, the medium was removed from each well. The cells were carefully rinsed with PBS (phosphate-buffered saline, Cat #L0615-500, Dutscher) and detached with 500 μL per well of a trypsin solution. After 5 min of trypsin (Cat #L0930-100, Dutscher) incubation at 37° C., 800 μL of medium was added per well and transferred to a 1.5 mL tube. Then, 800 μL of PBS was used to rinse each well and the corresponding solution was pooled in each corresponding 1.5 mL tube. […] Total protein concentration was assessed using the Bradford reagent (Cat #B6916-500ML, Sigma-Aldrich) and cellular lysates were stored at −80° C. until catalytic activity measurement. […]
compound,measurement,setting,value
"CC(C)(C)NC1CCN(c2cc(NCc3ccc(Cl)cc3)nc3ccccc23)CC1 [2-3, 2-(4-chlorobenzylamino)-4-(4-tert-butylaminopiperidin-1-yl)-quinoline Hydrochloride Salt]",CTSB/L activity versus NT,"HepG2, 2 μM",78.0%
same,CTSB/L activity versus NT,"HepG2, 4 μM",55.3%
same,inhibition of cathepsins B and L (CTSB/L) compare to the control,"HepG2, 2 μM, 4 μM for 6 hours and 1 μM, 2 μM for 24 hours, p<0.05",statistically significant
